The results in this text go back to US7691572B2, “Method and kit for detecting resistance to antiviral drugs” (priority 1998, dated 2010).

The target in the experiment is HIV-1 RT (Human immunodeficiency virus type 1 group M subtype B, UniProt P04585). In words: Amp-RT assay, AZT-TP and other NRTI-TPs, reference viruses. Type of experiment: biochemical. More on the design: The susceptibility of HIV-1 RT activity from viral isolates or plasma samples; made in house.

`Cc1cn([C@H]2C[C@H](N=[N+]=[N-])[C@@H](COP(=O)(O)OP(=O)(O)OP(=O)(O)O)O2)c(=O)[nH]c1=O` [AZT-TP, AZT-triphosphate]: where the note is “1 μM AZT-TP, HIV-1HXB2, WT”, the “% inhibition (SEM)” value is 98 (±2) %. Further, under “WT HIV-1HXB2”, the midpoint of inhibition, the IC50, lay at 500 nM and the IC90 (as a rule, the point of the concentration-response curve where the effect stands at 90%) stood at 900 nM.
